Data as given in patent publication US5663207A, “Gem-dichlorocyclopropanes as antitumor agents” (priority 1995, dated 1997).
Read-outs that look alike come from different tables or passages of the source.

Experiments:
estrogen receptor = molecular target: T1, estrogen receptor (Rattus norvegicus, UniProt P06211); assay: Receptor binding assay: displacement of [3H]-estradiol from rat uterine cytosol; set-up: species or system rat (Sprague-Dawley); settings: for [3H]-estradiol displacement curve (in words): rat uterine cytosolic estrogen receptor; for RBA (relative binding affinity): relative to estradiol = 100%
T1 construct: ovariectomized rat uterine cytosolic estrogen receptor preparation; from tissue; host or cells: uterine cytosol of ovariectomized Sprague-Dawley rats (immature rats from Sasco are named as uterus source, mature ovariectomized rats)
T1 sequence (P06211 1-600): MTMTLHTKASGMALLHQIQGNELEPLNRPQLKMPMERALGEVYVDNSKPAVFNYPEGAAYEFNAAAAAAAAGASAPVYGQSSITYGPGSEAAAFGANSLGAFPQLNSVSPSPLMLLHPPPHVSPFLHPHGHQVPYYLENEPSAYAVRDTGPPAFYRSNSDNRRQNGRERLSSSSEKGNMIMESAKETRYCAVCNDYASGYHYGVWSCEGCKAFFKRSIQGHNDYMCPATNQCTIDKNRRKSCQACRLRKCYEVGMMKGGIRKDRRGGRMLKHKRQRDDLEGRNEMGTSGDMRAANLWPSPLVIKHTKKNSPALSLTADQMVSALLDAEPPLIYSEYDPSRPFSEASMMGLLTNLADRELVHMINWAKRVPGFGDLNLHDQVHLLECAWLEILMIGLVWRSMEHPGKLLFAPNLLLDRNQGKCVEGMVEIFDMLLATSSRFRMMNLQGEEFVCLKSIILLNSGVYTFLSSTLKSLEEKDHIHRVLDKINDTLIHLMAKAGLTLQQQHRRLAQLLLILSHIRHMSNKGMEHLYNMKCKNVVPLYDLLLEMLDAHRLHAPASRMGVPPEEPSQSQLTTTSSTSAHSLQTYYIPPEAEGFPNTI
Source text: (§1) The biological evaluation of the test compounds consisted of the in vitro rat cytosolic estradiol receptor binding assay, the in vivo immature mouse uterotrophic (estrogenic) and antiuterotrophic (antiestrogenic) assays, and the in vitro suppression of the proliferation of the ER positive MCF-7 human breast cancer cell line. Estradiol (pure agonist), TAM (agonist in mice and antagonist in MCF-7), MER 25 (pure antagonist) and Analog II (antagonist in mice) were used in the assay as standards.
(§2) Vital-free immature female Swiss-Webster mice were obtained at 17-19 days of age from Sasco weighing 8-10 g, and were used in the uterotrophic and antiuterotrophic assays. Immature female Sprague-Dawley rats, obtained at 17-19 days of age from Sasco, weighing 28-33 g, were used as sources of uteri for the estradiol receptor binding assay. Animals were housed in wire topped polycarbonate cages at six animals per cage, with the environment controlled at 25° C. and a 12 h light/dark cycle. The animals received a diet of Wayne Lab Blox rodent chow and tap water ad libitum.
The RBAs of the test compounds were determined by the displacement of [^3 H]-estradiol in vitro, as described previously (DAY, B. W., […], R. A., JAIN, P., PENTO, J. T., MOUSISSIAN, G. K. AND MEYER, K. L. (1991), "Synthesis and biological evaluation of a series of 1,1-dichloro-2,2,3-triarylcyclopropanes as pure antiestrogens", Journal of Medicinal Chemistry, 34, 842; KORENMAN, S. G. (1969), "Comparative binding affinity of estrogens and its relation to estrogenic potency", Steroid, 13, 163). Mature female Sprague-Dawley rats were ovariectomized at least two weeks prior to the receptor binding experiment. Each test compound was assayed at three concentrations in duplicate over a range of 10^-3 -10^-5 M and 10^-6 -10^-8 M for the estradiol standard. The non-specific binding was determined by a parallel incubation of each compound with the addition of diethylstilbestrol to give a final concentration of 2×10^-5 M DES which was sufficient to saturate all the estrogen receptors present in the cytosolic fraction. Specific displacement for each compound was determined by subtraction of nonspecific displacement from total displacement. The [^3 H]-estradioldisplacement curve for each test compound was determined by linear repression analysis and plotted graphically. The relative binding affinity for each compound was calculated (BLISS, C.I. (1967), "The statistics in biology", McGraw Hill, Inc: New York).
^a Determined by competitive radiometric binding assay with rat
uterine cytosol as a source of receptor, [^3 H]estradiol as tracer,
and dextrancoated charcoal as absorbant for free ligand.
^c Binding affinities are expressed relative to that of estradiol =
100% (RBA = relative binding affinity) and are the average of duplicate
determinations minus nonspecific binding.
The relative binding affinities (RBAs), as determined by the competitive radiometric binding assay and measured by [^3 H]-estradiol displacement from the ovariectomized rat uterine cytosolic estrogen receptor preparation, after subtracting non-specific receptor binding, were calculated for all of the synthesized target compounds, TAM, MER 25, Analog II, and estradiol. The displacement curves were plotted as percent receptor-bound [^3 H]-estrodiol versus concentration of test compounds (not shown) and the receptor binding affinity of each compound is presented in Table II.

[1] = tested on: MCF-7 human breast cancer cells; assay: In vitro MCF-7 human breast cancer cell growth inhibition assay; assay type: cell-based; settings: for inhibition at 1 µM: Homo sapiens
Source text: as §1
MCF-7 (estrogen-receptor positive) human breast cancer cells (obtained from the Michigan Cancer Foundation, Detroit, Mich.) were grown at 37° C. in 75 cm^2 tissue culture (T-75) flasks, as monolayer cultures in RPMI 1640 phenol red-free media supplemented with 2 mM L-glutamine, gentamicin (50 μg/mL), penicillin (100 units/mL), streptomycin (100 μg/mL ) and calf serum (5%). Cultures were grown in an incubator 37° C. in a humid 5% CO2 atmosphere, and fed on alternate days. Expotential growth was maintained by subculturing at eight day intervals when the cells per T-75 flask reached 10 to 12×10^6 cells. Cells were trypsinized, washed and plated in multiwell plates at a density of 5×10^4 cells/well in 3 mL of RPMI 1640 media. The cells were allowed to attach and were in logarithmic growth when the test compounds were added. The test compounds (10^-6 M) in the presence or absence of a 10-fold lower dose of estradiol were dissolved in a polyethylene glycol 400: ethanol (55:45) mixture and added in the culture media in duplicate. Control samples received vehicle alone at the same concentration used in the treatment groups. The final concentration of the vehicle mixture was 0.1% of the incubation media. Cell growth was measured on alternate days using the hemocytometric trypan blue exclusion method. Percent inhibition of MCF-7 cells was calculated as the ratio of the control mean cell count per well minus the treatment group mean cell count per well to the control mean cell count per well, multiplied by 100.
^b % MCF7 inhibition was calculated as follows: […]
Thirteen compounds, Analog II, TAM, and MER 25 were tested for their antiproliferative activity in the MCF-7 human breast cancer cell line (Table II). Compounds were tested at a concentration of 10^-6 M in the presence or absence of 10^-7 M estradiol to assess their ability to alter the growth of the calls (Table II). The 10^-6 M concentration was selected since it was reported that the inhibition of the MCF-7 cells by antiestrogens and TAM occurred either at that concentration or less, and were both selective and estrogen receptor specific. Concentrations of antiestrogens greater than 5×10^-6 M were reported to have nonspecific cytotoxic effects (BRIAND, P. AND […], A. E. (1984), "Effect of estrogen and antiestrogen on the human breast cancer cell line MCF-7 adapted to growth at low serum concentration", Cancer Research, 44, 1114).

[2] = tested on: Immature Swiss-Webster female mice (uterine weight); assay: Uterotrophic assay for estrogenic activity in immature mice; assay type: in vivo, mouse (Swiss-Webster); settings: for uterine weight response (estrogenic activity, in words): doses of 5, 25 and 100 μg (total dose)
Source text: The biological evaluation of the test compounds consisted of the in vitro rat cytosolic estradiol receptor binding assay, the in vivo immature mouse uterotrophic (estrogenic) and antiuterotrophic (antiestrogenic) assays, and the in vitro suppression of the proliferation of the ER positive MCF-7 human breast cancer cell line.
as §2
Immature Swiss-Webster female mice (8-15 g) at 17-19 days of age were used. Estradiol was used in the dosage range of […] (total dose) as the assay standard. Each cyclopropyl analogue was examined at doses of 5, 25, and 100 μg (total dose). […] Estrogenic activity was measured as an increase in uterine weight produced by each test compound.

[3] = MCF7, 10^-6 M, versus control mean cell count, read-out: MCF-7 Inhibition
[4] = MCF7, 10^-6 M, printed as dash with footnote g, read-out: MCF-7 Inhibition
[5] = retested at 100, 250, and 500 μg
[6] = average of duplicate determinations minus nonspecific binding
[7] = MCF7, read-out: MCF-7 Inhibition

| RBA ranking (in words) (estrogen receptor; among the compounds tested) | SMILES | [3H]-estradiol displacement curve (in words) (estrogen receptor) | RBA (relative binding affinity) (estrogen receptor; given as dash with footnote e) | effect on MCF-7 cell growth (in words) ([1]; 10^-6 M) | inhibition at 1 µM [1, 3] | uterine weight response (estrogenic activity, in words) [2] | inhibition at 1 µM [1, 4] | uterotrophic response on retest (in words) [2, 5] | RBA (relative binding affinity) (estrogen receptor; [6]) | inhibition at 1 µM [1, 7] | uterotrophic response on retest (in words) ([2]; retested at 25, 100, and 250 μg) |
| --- | --- | --- | --- | --- | --- | --- | --- | --- | --- | --- | --- |
| lowest RBA | COc1ccc([C@H]2[C@@H](c3ccccc3)C2(Cl)Cl)cc1 (relative stereo) [Compound 8, 1,1-Dichloro-cis-2-(p-methoxyphenyl)-3-phenylcyclopropane] | dose-dependent displacement curves with shallower slopes than their acetoxy and phenolic analogues | --^e (Less than 0.01%.) | inhibited cell growth | 25.3% | well below the control group | – | – | – | – | – |
| – | COc1ccc([C@H]2[C@H](c3ccccc3)C2(Cl)Cl)cc1 (relative stereo) [Compound 16, 1,1-Dichloro-trans-2-(p-methoxyphenyl)-3-phenylcyclopropane] | dose-dependent displacement curves with shallower slopes than their acetoxy and phenolic analogues | --^e (Less than 0.01%.) | did not | – | slight increase in uterine weight at doses of 25 and 100 μg | < 10% | no significant uterotrophic responses | – | – | – |
| – | CC(=O)Oc1ccc([C@H]2[C@H](c3ccccc3)C2(Cl)Cl)cc1 (relative stereo) [Compound 18, 1,1-Dichloro-trans-2-(p-acetoxyphenyl)-3-phenylcyclopropane] | – | – | did not | – | – | < 10% | – | 0.25% | – | – |
| – | COc1ccc([C@@H]2[C@H](c3ccc(OC)cc3)C2(Cl)Cl)cc1 [Compound 14, 1,1-Dichloro-cis-2,3-bis-(p-methoxyphenyl) cyclopropane] | dose-dependent displacement curves with shallower slopes than their acetoxy and phenolic analogues | – | inhibited cell growth | 37% | – | – | – | 0.01% | – | – |
| – | COc1ccc(C2(c3ccc(OC)cc3)CC2(Cl)Cl)cc1 [Compound 23, 1,1-Dichloro-2,2-bis-(p-methoxyphenyl)cyclopropane] | dose-dependent displacement curves with shallower slopes than their acetoxy and phenolic analogues | --^e (Less than 0.01%.) | inhibited cell growth | – | well below the control group | – | – | – | 30% | – |
| – | COc1ccc(C2(c3ccc(O)cc3)CC2(Cl)Cl)cc1 (stereo not shown) [Compound 24, 1,1-Dichloro-2-(p-methoxyphenyl)-2-(p-hydroxyphenyl)cyclopropane] | – | – | only 23 inhibited cell growth | – | – | – | – | 0.02% | < 10% | – |
| – | Oc1ccc(C2(c3ccc(O)cc3)CC2(Cl)Cl)cc1 [Compound 25, 1,1-Dichloro-2,2-bis-(p-hydroxyphenyl) cyclopropane] | – | – | only 23 inhibited cell growth | – | well below the control group | – | – | 0.04% | < 10% | – |
| – | COc1ccc(C2(c3ccc(OC)cc3)C(Cl)(Cl)C23CCCCC3)cc1 [Compound 29, 1,1-Dichloro-2,2-bis-(p-methoxyphenyl)-spiro[2.5]octane] | dose-dependent displacement curves with shallower slopes than their acetoxy and phenolic analogues | --^e (Less than 0.01%.) | active inhibitors of cell growth | – | slight increase in uterine weight at doses of 25 and 100 μg | – | no significant uterotrophic responses | – | 37% | – |
| – | CC(=O)Oc1ccc(C2(c3ccc(OC(C)=O)cc3)C(Cl)(Cl)C23CCCCC3)cc1 [Compound 31, 1,1-Dichloro-2,2-bis-(p-acetoxyphenyl)-spiro[2.5]octane] | – | – | – | – | well below the control group | – | – | 0.05% | < 10% | – |
| – | COc1ccc(C2(c3ccc(OC)cc3)C(c3ccccc3)C2(Cl)Cl)cc1 (stereo not shown) [Compound 35, 1,1-Dichloro-2,2-bis-(p-methoxyphenyl)-3-phenylcyclopropane] | dose-dependent displacement curves with shallower slopes than their acetoxy and phenolic analogues | --^e (Less than 0.01%.) | did not alter cell growth | – | slight increase in uterine weight at doses of 25 and 100 μg | – | – | – | < 10% | no significant uterotrophic responses |
